The record followed here is US20240010726A1, “LFA-1 SIGNALLING MEDIATOR FOR USE IN CANCER THERAPY” (Universität Basel, priority 2020, published 2024).

Assay [1] deals with murine WT and LFA-1^−/− CTLs. Put plainly: Degranulation marker CD107a on murine WT and LFA-1−/− CTLs. The class given is cell-based. Particulars: 8 h anti-CD3/anti-CD28 Ab; 0 mM vs 1.2 mM Mg^2+.
In another assay the test system is PSMA+ PC3-PIP cell line. Put plainly: Cytotoxicity assay with anti-PSMA CAR T cells (IncuCyte). Type of assay: cell-based, human. Particulars: time-lapse killing; E:T 2:1; 0 mM vs 0.6 mM Mg^2+. The protocol: FIG. 3: Magnesium regulates LFA-1 mediated T cell activation and cytotoxicity as well BiTE- and CAR T-cell functionality. (a) Glycolytic switch of murine WT and LFA-1^-/- CTLs upon injection of anti-CD3/28 Ab in medium containing 1.2 mM Mg^2+ and 0 mM Mg^2+, presented as quantification of summarized data with n=4 mice. (b) Calcium flux in WT and LFA-1^-/- Jurkat T cells stimulated with anti-CD3 Ab in 1.2 mM and 0 mM Mg^2+ medium, respectively. Cells were loaded with Fluo4, and signal intensity as recorded by plate reader, was normalized to unstimulated baseline values. […] Quantified results of n=3 mice with 3 technical replicates each. […] The effector to target cell ratio was 3:1. Results are quantified of n=3 mice with 3 technical replicates each. (e) Representative CD11a (LFA-1) surface expression on human naïve and EM CD8 T cells, PHA T cell blasts and REP T cells, assessed by flow cytometry. […] The effector to target cell ratio was 1:1. Data is presented as quantified results of n=5 healthy donors (f, g, h), n=3 healthy donors with 2 technical replicates each or n=1 healthy donor with 4 technical replicates (j). […] Data is presented as quantified results of n=1 healthy donor with 4 technical replicates. […] (p) Abundance of IFNγ in cell culture supernatants corresponding to the conditions depicted in (o) at 24 hours was determined by ELISA (n=8, 3 independent experiments). […]

For the next assay, the system named is human EM CD8 T cells. Put plainly: Cytometric bead array of cytokines in EM CD8 T cell culture supernatants. Type of assay: cell-based. Particulars: Mg^2+-restricted (0 mM) vs 1.2 mM Mg^2+; 24 h. The protocol:
FIG. 2: Extracellular magnesium promotes memory-specific activation via LFA-1. Glycolytic switch of human EM CD8 T cells (a) and naïve CD8 T cells (b) subsets upon injection of anti-CD3 Ab only, or anti-CD3 and anti-CD28 Ab, was assessed by metabolic flux analysis in medium containing either 1.2 mM Mg^2+, 0 mM Mg^2+, or medium which was reconstituted from 0 mM to 1.2 mM Mg^2+ immediately prior to activation (0→1.2 mM Mg^2+). (a) Results for human effector memory (EM) and (b) for human naïve CD8 T cells. Glycolytic switch was quantified by subtracting […] measurements. (c) Flow cytometric analysis of surface activation markers on human EM CD8 T cells 24 hours after activation by plate-bound anti-CD3 Ab and soluble anti-CD28 Ab, in 1.2 mM and 0 mM Mg^2+ media, respectively. (d) Abundance of inflammatory cytokines in corresponding EM CD8 T cell culture supernatants, determined by CBA. (e) CD11a (LFA-1) surface expression on human naïve and EM CD8 T cells as well PHA T cell blasts. Flow cytometry-based assessment of total LFA-1 expression assessed by mAb TS2/4 (f), closed conformation of αL by mAb HI111 (g), extended conformation of LFA-1 by mAb Kim127 (h), open head-piece conformation of LFA-1 by mAb m24 (i), phosphorylation of focal adhesion kinase (FAK) […] as well TNF expression (k)±TCR-induced activation in different extracellular Mg^2+ concentrations. (l) Flow cytometry-based assessment of LFA-1 with open-head piece conformation on human EM and naïve CD8 T cells using the open head-piece reporter mAb m24. (m) Assessment of glycolytic switch of EM CD8 T cells. (n) Assessment of glycolytic switch of naïve CD8 T cells. […] Cytokine concentrations in cell culture supernatants were determined using the LegendPlex cytrometric bead Array human […]) according to manufacturer's instructions.

Take `[Mg+2]` [Mg^2+, Magnesium]: in assay [1], the “CD107a degranulation of LFA-1^−/− CTLs” value was “unaffected” and the “CD107a degranulation of WT CTLs” value is “reduced CTL degranulation”. Also, the “Cytolytic activity of CAR T cells against tumor target cells” value with PSMA+ PC3-PIP cell line is on record as “impaired the cytolytic activity”. In the assay with human EM CD8 T cells, the IFNγ secretion entry is on record as “decreased production”, the IL-2 secretion result is recorded as “decreased production” and the TNF secretion result is reported as “decreased production”.
